Reference: US20030234382A1, “Sterilizing composition and method for sterilizing using the same” (NIPPON PEROXIDE CO., LTD., priority 2002, published 2003)

Tested on: chaetomium spore
Assay: Sterilizing power test (D value) against chaetomium spores
Format: cell-based
Conditions: 40° C.; chaetomium spore solution 4×10^6 CFU/ml; peracetic acid and agent concentrations per experiment (c1-c3)
Protocol: 95 g of tap water was added to 5 g of an equilibrated peracetic acid solution containing 4 wt % of peracetic acid, 16 wt % of hydrogen peroxide and 15 wt % of acetic acid, and the resultant mixture was stirred to prepare a uniform aqueous solution. A peracetic acid concentration of the aqueous solution thus prepared was 2,000 ppm.
Each of sterilizing power test sample solutions was prepared by adding a predetermined amount of each of peracetic acid sterilizing power-improving agents shown in the following Table 1 to the peracetic acid aqueous solution prepared in the above paragraph (a) and stirring the mixture.
100 ml of the above prepared test sample solution was placed in an Erlenmeyer flask, and was maintained at 40° C. 1 ml of a chaetomium spore solution having an inoculated bacteria number of 4×10^6 CFU/ml was inoculated therein, and 1 ml of a sample was taken from the Erlenmeyer flask respectively at 10 seconds, 20 seconds, 30 seconds, 60 seconds and 120 seconds after the inoculation. […] Thereafter, a number of live bacteria remaining in each sample optionally diluted was measured in accordance with plate mix-diluting cuture method using a potato dextrose agar medium, and a D value (time (unit: minute) taken to reduce a bacteria number to 1/10) was determined as a standard of sterilizing power. […]

In the case of `OCCc1ccccc1` [compound 8], the “D40 (D value: time taken to reduce a bacteria number to 1/10)” value is reported as 238 min.
